Where two headings read alike, the source gives them in different places.
Columns and labels:
DLD-1 BRCA2−/− cells = test: Homologous recombination synthetic lethal inhibition of proliferation, DLD-1 BRCA2-/- (Cell Titre Glo 3D); assay type: cell-based; details: Homo sapiens
How it was run: (§1)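 Isogenic DLD-1 pair; BRCA2−/− seeded 3,000 cells/mL and read day 12, wt seeded 1,500 cells/mL and read day 7. 10-pt titration (top 10 μM, 3-fold), re-fed with compound day 6, 37 °C/5% CO2. CTG 3D endpoint; IC50 at 50% signal loss.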

DLD-1 cells = test: Inhibition of proliferation, DLD-1 BRCA2 wt control (Cell Titre Glo 3D); assay type: cell-based; details: Homo sapiens
How it was run: as §1

[1] = DLD-1, DLD-1 BRCA2 −/− cells, mean, read-out: POLQ PD Prolif Lumin BRCA2 −/− mean pIC50 (converted)
[2] = DLD-1, DLD1 BRCA2 wt cells, mean, read-out: POLQ PD Prolif Lumin DLD1 mean PIC50 (converted)
[3] = DLD-1, first proliferation column (c5), DLD-1 BRCA2-/-, read-out: POLQ PD Prolif Lumin (converted)
[4] = DLD-1, second proliferation column (c6), DLD-1 BRCA2 wt control, read-out: POLQ PD Prolif Lumin (converted)

Structure (SMILES) | IC50 (DLD-1 BRCA2−/− cells; [1]) [nM] | IC50 (DLD-1 cells; [2]) [nM] | IC50 (DLD-1 BRCA2−/− cells; [3]) [nM] | IC50 (DLD-1 cells; [4]) [nM]
Cc1cnc(Cn2c(-c3cccc(OCCN(C)C)c3Cl)nc3c(OC4(C)CC4)ncnc32)s1 [Example T73, 2-(2-chloro-3-(6-(1-methylcyclopropoxy)-9-((5-methylthiazol-2-yl)methyl)-9H-purin-8-yl)phenoxy)-N,N-dimethylethan-1-amine] | 631 | > 10000 |  | 
CNCCCOc1ccc(-c2nc3c(OC4(C)CC4)ncnc3n2Cc2ncc(C)s2)c(Cl)c1 [Example T74, 3-(3-chloro-4-(6-(1-methylcyclopropoxy)-9-((5-methylthiazol-2-yl)methyl)-9H-purin-8-yl)phenoxy)-N-methylpropan-1-amine] | 501 | > 10000 |  | 
CC1(Oc2ncnc3c2nc(-c2ccc(OCCN4CCNCC4)cc2Cl)n3Cc2nnco2)CC1 [Example T76, 2-((8-(2-chloro-4-(2-(piperazin-1-yl)ethoxy)phenyl)-6-(1-methylcyclopropoxy)-9H-purin-9-yl)methyl)-1,3,4-oxadiazole] | > 10000 | > 3160 |  | 
CC1(Oc2ncnc3c2nc(-c2cccc(/C=C/C(=O)O)c2Cl)n3Cc2cccc(Cl)c2)CC1 [Example T80, (E)-3-(2-chloro-3-(9-(3-chlorobenzyl)-6-(1-methylcyclopropoxy)-9H-purin-8-yl)phenyl)acrylic acid] | 100 | > 10000 |  | 
CC1(Oc2ncnc3c2nc(-c2ccc(OCCC(=O)O)cc2Cl)n3Cc2cccc(Cl)c2Cl)CC1 [Example T85, 3-(3-chloro-4-(9-(2,3-dichlorobenzyl)-6-(1-methylcyclopropoxy)-9H-purin-8-yl)phenoxy)propanoic acid] | 794 | > 10000 |  | 
CC1(Oc2ncnc3c2nc(-c2ccc(OCCC(=O)O)cc2Cl)n3Cc2cccc(Cl)c2)CC1 [Example T87, 3-(3-chloro-4-(9-(3-chlorobenzyl)-6-(1-methylcyclopropoxy)-9H-purin-8-yl)phenoxy)propanoic acid] | 398 | > 10000 |  | 
CC1(Oc2ncnc3c2nc(-c2cccc(OCCC(=O)O)c2Cl)n3Cc2cccc(Cl)c2)CC1 [Example T89, 3-(2-chloro-3-(9-(3-chlorobenzyl)-6-(1-methylcyclopropoxy)-9H-purin-8-yl)phenoxy)propanoic acid] | 39.8 | > 10000 |  | 
C[C@@H](Oc1cccc(-c2nc3c(OC4(C)CC4)ncnc3n2Cc2cccc(Cl)c2)c1Cl)C(=O)O [Example T91, (R)-2-(2-chloro-3-(9-(3-chlorobenzyl)-6-(1-methylcyclopropoxy)-9H-purin-8-yl)phenoxy)propanoic acid] | > 10000 | > 10000 |  | 
CC1(Oc2ncnc3c2nc(-c2ccc(OCCc4nn[nH]n4)cc2Cl)n3Cc2cccc(Cl)c2)CC1 [Example T92, 8-(4-(2-(2H-tetrazol-5-yl)ethoxy)-2-chlorophenyl)-9-(3-chlorobenzyl)-6-(1-methylcyclopropoxy)-9H-purine] | 2000 | > 10000 |  | 
CC(=O)COc1ccc(-c2nc3c(OC4(C)CC4)ncnc3n2Cc2cc(C)ccn2)c(Cl)c1 [Example T104, 1-(3-chloro-4-(6-(1-methylcyclopropoxy)-9-((4-methylpyridin-2-yl)methyl)-9H-purin-8-yl)phenoxy)propan-2-one] |  |  | 200 | > 10000
Cc1ccnc(Cn2c(-c3ccc(N4CCNC4=O)cc3Cl)nc3c(OC4(C)CC4)ncnc32)c1 [Example T107, 1-(3-chloro-4-(6-(1-methylcyclopropoxy)-9-((4-methylpyridin-2-yl)methyl)-9H-purin-8-yl)phenyl)imidazolidin-2-one] |  |  | 398 | > 10000
Cc1ccnc(Cn2c(-c3ccc(OC4CNC4)cc3Cl)nc3c(OC4(C)CC4)ncnc32)c1 [Example T111, 8-(4-(azetidin-3-yloxy)-2-chlorophenyl)-6-(1-methylcyclopropoxy)-9-((4-methylpyridin-2-yl)methyl)-9H-purine] |  |  | 316 | > 10000
Cc1ccnc(Cn2c(-c3ccc(C(=O)N(C)C)cc3Cl)nc3c(OC4(C)CC4)ncnc32)c1 [Example T112, 3-chloro-N,N-dimethyl-4-(6-(1-methylcyclopropoxy)-9-((4-methylpyridin-2-yl)methyl)-9H-purin-8-yl)benzamide] |  |  | 1580 | > 10000
Cc1ccnc(Cn2c(-c3ccc(CCC(N)=O)cc3Cl)nc3c(OC4(C)CC4)ncnc32)c1 [Example T116, 3-(3-chloro-4-(6-(1-methylcyclopropoxy)-9-((4-methylpyridin-2-yl)methyl)-9H-purin-8-yl)phenyl)propanamide] |  |  | 631 | > 10000
Cc1ccnc(Cn2c(-c3ccc(C(=O)NCCO)cc3Cl)nc3c(OC4(C)CC4)ncnc32)c1 [Example T119, 3-chloro-N-(2-hydroxyethyl)-4-(6-(1-methylcyclopropoxy)-9-((4-methylpyridin-2-yl)methyl)-9H-purin-8-yl)benzamide] |  |  | 794 | > 10000
CNC(=O)COc1cccc(-c2nc3c(OC4(C)CC4)ncnc3n2Cc2cc(C)ccn2)c1Cl [Example T120, 2-(2-chloro-3-(6-(1-methylcyclopropoxy)-9-((4-methylpyridin-2-yl)methyl)-9H-purin-8-yl)phenoxy)-N-methylacetamide] |  |  | 158 | > 6310
Cc1ccnc(Cn2c(-c3ccc(NC(=O)[C@@H](C)O)cc3Cl)nc3c(OC4(C)CC4)ncnc32)c1 [Example T121, (R)-N-(3-chloro-4-(6-(1-methylcyclopropoxy)-9-((4-methylpyridin-2-yl)methyl)-9H-purin-8-yl)phenyl)-2-hydroxypropanamide] |  |  | 316 | > 10000
Cc1ccnc(Cn2c(-c3ccc(NC(=O)OCCO)cc3Cl)nc3c(OC4(C)CC4)ncnc32)c1 [Example T123, 2-hydroxyethyl (3-chloro-4-(6-(1-methylcyclopropoxy)-9-((4-methylpyridin-2-yl)methyl)-9H-purin-8-yl)phenyl)carbamate] |  |  | 200 | > 10000
Cc1ccnc(Cn2c(-c3ccc(OCCS(C)(=O)=O)cc3Cl)nc3c(OC4(C)CC4)ncnc32)c1 [Example T129, 8-(2-chloro-4-(2-(methylsulfonyl)ethoxy)phenyl)-6-(1-methylcyclopropoxy)-9-((4-methylpyridin-2-yl)methyl)-9H-purine] |  |  | 158 | > 10000
Cc1ccnc(Cn2c(-c3ccc(NC(=O)NCCO)cc3Cl)nc3c(OC4(C)CC4)ncnc32)c1 [Example T132, 1-(3-chloro-4-(6-(1-methylcyclopropoxy)-9-((4-methylpyridin-2-yl)methyl)-9H-purin-8-yl)phenyl)-3-(2-hydroxyethyl)urea] |  |  | 2000 | > 10000
CNCCCOc1ccc(-c2nc3c(OC4(C)CC4)ncnc3n2Cc2cc(Cl)ccn2)c(Cl)c1 [Example T134, 3-(3-chloro-4-(9-((4-chloropyridin-2-yl)methyl)-6-(1-methylcyclopropoxy)-9H-purin-8-yl)phenoxy)-N-methylpropan-1-amine] |  |  | 126 | > 10000
CN(C)CCOc1ccc(-c2nc3c(OC4(C)CC4)ncnc3n2Cc2cc(Cl)ccn2)c(Cl)c1 [Example T135, 2-(3-chloro-4-(9-((4-chloropyridin-2-yl)methyl)-6-(1-methylcyclopropoxy)-9H-purin-8-yl)phenoxy)-N,N-dimethylethan-1-amine] |  |  | 50.1 | > 10000

Source: US20250195530A1, “POLQ INHIBITORS” (ASTRAZENECA AB, priority 2022, published 2025)
